Tests used:
Arabidopsis thaliana = test: Effect on the root proliferation of Arabidopsis thaliana; format: in vivo, Arabidopsis thaliana (ecotype Columbia); conditions: for Concentration with highest activity: number of lateral roots; for Activity (%) [10^-8 mol.l^-1 Kin = 100%]: number of lateral roots (% of control), at concentration with highest activity
Experimental: Arabidopsis thaliana seeds (ecotype Columbia) were sterilized with 70% ethanol and 0.1% Triton X-100 and then washed with 70% ethanol containing 0.01% Triton X-100. Then the seeds were transferred to vertical square petri dishes (11 seeds per dish) on a solid medium consisting of MS (2.15 g/l), MES (0.5 g/l), sucrose (1 g/l), agar (11 g/l), buffered to pH 5.8, and various concentrations of tested compounds. The compounds were dissolved in DMSO, thus 0.05% DMSO was used as a control solution. After incubation for 3 days in darkness at 4°C, the seeds were germinated and grown in an environmental chamber (fluorescence light intensity 150 µE m^-2 s^-1, humidity 55%, 16 h day/8 h night, 22°C). […] The number of lateral roots was scored under a stereomicroscope. […] In addition, compounds with tetrahydropyranyl protection at N9 slightly increase the number of emerged lateral roots (Fig 3C). […] Table 6: […]

[1] = Calcein AM cytotoxicity assay, B10A.4 cells; conditions: mouse; for CC50 at 72 h: b10a.4 macrophages
Experimental: (§1) All compound concentrations were examined in duplicates. […] Zero cytotoxicity is a basic prerequisite for the use of these substances in cosmetical applications. To assess the antitumor activity, the toxicity of new derivatives on panels containing cell lines of different histogenic and species origin was tested (Table 5). […] The compounds listed in Table 5 can be divided into 2 groups.
(§2) The first group contains "classical cytokinins" represented by 6-substituted purines (their effects are already known). The second group includes novel 2-fluoro-N6-substituted-9-(2-oxacycloalkyl)-9H-purine-6-amine derivatives. […] Low cytotoxicity (high IC50 value) of the compounds is the basic prerequisite for cosmetic and medical applications. […] Table 5: Cytotoxicity of novel compounds for different normal cell lines tested / IC50 (µmol/L)

[2] = Calcein AM cytotoxicity assay, BJ cells; conditions: human; for CC50 at 72 h: bj fibroblasts
Experimental: as §1, §2

[3] = Calcein AM cytotoxicity assay, NIH3T3 cells; conditions: mouse; for CC50 at 72 h: nih3t3 cells
Experimental: as §1, §2

Zea mays seedlings = test: Effect on development of Zea mays seedlings (hydroponic); format: in vivo, Zea mays cv. CELLUX; conditions: for Root dry mass (%) [4 x 10^-8 mol.l^-1 Kin = 100%] / Shoot dry mass (%) [10^-6 mol.l^-1 Kin = 100%]: at concentration with highest activity
Experimental: Maize seeds (Zea mays cv. CELLUX) were imbibed in tap water and germinated on a wetted filter paper. After 3 days, the germinated seedlings were transferred to aerated hydroponic tanks filled with Hoagland's nutrient solution. The plants were grown in an environmental chamber with 16 h light period (250 μE m^-2 s^-1) at 27°C and 8 h dark period at 20°C. Tested compounds diluted in DMSO were added to nutrient solution immediately when seedlings were nested in the tanks or after two additional days of cultivation. Control plants were grown in parallel with addition of corresponding amount of DMSO (up to 0.01%). Root and leaf tissues of ten plants were harvested at different time points after the application of the compounds, immediately frozen in liquid nitrogen and used for cytokinin content and transcript level analysis. Length of primary root and the first leaf were determined with ruler on sets of twelve plants, each cultivated in the independent tank (for every cytokinin application repeated ten times). Dry mass of root system and the aerial part was determined after cutting off the kernel and desiccation in dryer for two days at 60°C. […] Fig. 4) and up to 1 micromolar concentration when more seedlings were in the solution (approx. 50 seedlings per 1 liter; Fig. 5). […] Table 7: […]

excised wheat leaf tips = test: Senescence inhibition on winter wheat leaf segments (chlorophyll retention); parameters: species or system Triticum aestivum cv. Hereward; conditions: for Concentration with highest activity: retention of chlorophyll; for Activity (%) [10^-4mol.l^-1 KTHP = 100%] / Emax: retention of chlorophyll in excised wheat leaf tips, 96 h in the dark, at concentration with highest activity; for Emax: Triticum aestivum, foliar, read-out: Activity (%) [10^-4mol.l^-1 KTHP = 100%]
Experimental: Seeds of winter wheat, Triticum aestivum cv. Hereward, were washed under running water for 24 hours and then sown on vermiculite soaked with the Knop's solution. They were placed in the grow chamber at 25 °C with a 16/8 h light period at 50 μmol.m^-2.s^-1. After 7 days, the first leaf was fully developed and the second leaf had started to grow. A tip section of the first leaf, approximately 35 mm long, was removed from 5 seedlings and trimmed slightly to a combined weight of 100 mg. The basal ends of the five leaf tips were placed in the wells of a microtiter polystyrene plate containing 150 μl of the solution of the tested compound each. The entire plate was inserted into a plastic box lined with paper tissues soaked with distilled water to prevent leaf sections from drying out. […] The absorbance of the extract was recorded at 665 nm. In addition, chlorophyll extracts from fresh leaves and leaf tips incubated in deionised water were measured. From the obtained data, the concetration with the highest activity was selected for each compound tested. Relative activity of the compound at this concentration was calculated (Table 7). […] The values shown are means of five replicates and the whole experiment was repeated twice. The compounds to be tested were dissolved in dimethylsulfoxide (DMSO) and the solution brought up to 10^-3 M with distilled water. […] The compounds listed in Table 7 can be divided into 2 groups. The first group contains "classical 6,9-disubstituted purines (KTHP as a control)" known in prior art. […] Table 9: […]

[4] = Cytotoxicity IC50, B10A.4, first column headed B10A.4

Structure (SMILES)	CC50 at 72 h [1, 4] [µM]	CC50 at 72 h [2] [µM]	CC50 at 72 h [3] [µM]	Concentration with highest activity (excised wheat leaf tips)	Activity (%) [10^-4mol.l^-1 KTHP = 100%] (excised wheat leaf tips)	IC50 at 72 h [1, 4] [µM]	IC50 at 72 h [2] [µM]	IC50 at 72 h [3] [µM]	Concentration with highest activity (Arabidopsis thaliana)	Activity (%) [10^-8 mol.l^-1 Kin = 100%] (Arabidopsis thaliana)	Root dry mass (%) [4 x 10^-8 mol.l^-1 Kin = 100%] (Zea mays seedlings)	Shoot dry mass (%) [10^-6 mol.l^-1 Kin = 100%] (Zea mays seedlings)	Concentration with highest activity (Zea mays seedlings; root dry mass)	Concentration with highest activity (Zea mays seedlings; shoot dry mass)	Emax (excised wheat leaf tips) [%]	also measured
COc1cccc(CNc2ncnc3nc[nH]c23)c1 [6-(3-methoxybenzylamino)purine, reference compound]																root elongation and branching (in words) (Arabidopsis thaliana; already in micromolar concentration): significantly inhibits root elongation and branching
CC(C)=CCNc1nc(F)nc2c1ncn2C1CCCO1 (stereo not shown) [Compound 13]	> 167	> 167	> 167	10^-4 mol.l^-1	109.8 (± 13) %											CC50 at 72 h ([1]; Cytotoxicity IC50, B10A.4, second column headed B10A.4): > 167 µM; root elongation and lateral root proliferation (in words) (Zea mays seedlings; up to 1 µM concentration): does not inhibit root elongation and lateral root proliferation
Oc1cccc(CNc2nc(F)nc3c2ncn3C2CCCO2)c1 (stereo not shown) [Compound 15, 2-Fluoro-6-[(3-hydroxybenzyl)amino]-9-(tetrahydrofuran-2-yl)-9H-purine]						> 167	> 167	> 167	10^-5 mol.l^-1	24.8 (± 4) %	201.4 (± 22) %	124.3 (± 8) %	10^-7 mol.1^-1	10^-6 mol.1^-1	133	
COc1ccccc1CNc1nc(F)nc2c1ncn2C1CCCO1 (stereo not shown) [Compound 17, 2-Fluoro-6-[(2-methoxybenzyl)amino]-9-(tetrahydrofuran-2-yl)-9H-purine]						> 167	> 167	> 167	10^-5 mol.l^-1	30.7 (± 7) %	241.5 (± 19) %	139.8 (± 7) %	10^-7 mol.1^-1	10^-6 mol.1^-1	104	
COc1cccc(CNc2nc(F)nc3c2ncn3C2CCCO2)c1 (stereo not shown) [Compound 18]	> 167	> 167	> 167	10^-4 mol.l^-1	175.8 (± 10) %				10^-5 mol.l^-1	28.6 (± 2) %	240.6 (± 22) %	148.2 (± 8) %	10^-7 mol.1^-1	10^-6 mol.1^-1		
Oc1cc(Cl)cc(CNc2nc(F)nc3c2ncn3C2CCCO2)c1 (stereo not shown) [Compound 27]									10^-5 mol.l^-1	45.7 (± 6) %	194.5 (± 18) %	116.3 (± 7) %	10^-7 mol.1^-1	10^-6 mol.1^-1		
Oc1cc(F)cc(CNc2nc(F)nc3c2ncn3C2CCCO2)c1 (stereo not shown) [Compound 28]									10^-5 mol.l^-1	49.3 (± 9) %	190.2 (± 20) %	111.8 (± 6) %	10^-7 mol.1^-1	10^-6 mol.1^-1		
Oc1ccc(CNc2nc(F)nc3c2ncn3C2CCCO2)o1 (stereo not shown) [Compound 55]	> 167	> 167	> 167	10^-4 mol.l^-1	101 (± 17) %											
Cc1ccc(CNc2nc(F)nc3c2ncn3C2CCCCO2)o1 (stereo not shown) [Compound 60, 2-Fluoro-6-[(5-methylfurfuryl)amino]-9-(tetrahydro-2H-pyran-2-yl)-9H-purine]						> 167	> 167	> 167							123	
COc1ccc(CNc2nc(F)nc3c2ncn3C2CCCCO2)o1 (stereo not shown) [Compound 63]	> 167	> 167	> 167	10^-4 mol.l^-1	97 (± 5) %											
Oc1ccc(CNc2nc(F)nc3c2ncn3C2CCCCO2)cc1 (stereo not shown) [Compound 66, 2-Fluoro-6-[(4-hydroxybenzyl)amino]-9-(tetrahydro-2H-pyran-2-yl)-9H-purine]						> 167	> 167	> 167							74	
COc1ccc(CNc2nc(F)nc3c2ncn3C2CCCCO2)cc1 (stereo not shown) [Compound 68, 2-Fluoro-6-[(4-methoxybenzyl)amino]-9-(tetrahydro-2H-pyran-2-yl)-9H-purine]						> 167	> 167	> 167				118.6 (± 9) %		10^-6 mol.1^-1	155	
CC(C)=CCNc1nc(F)nc2c1ncn2C1CCCCO1 (stereo not shown) [Compound 69]	146	153	142	10^-4 mol.l^-1	108 (± 13) %											
C/C(=C\CNc1nc(F)nc2c1ncn2C1CCCCO1)CO (stereo not shown) [Compound 70]	> 167	> 167	> 167	10^-4 mol.l^-1	126 (± 12) %											

Reference: patent publication EP4178959B1, “NITROGEN HETEROCYCLIC CYTOKININ DERIVATIVES, COMPOSITIONS CONTAINING THESE DERIVATIVES AND USE THEREOF” (Univerzita Palackého v Olomouci, priority 2020, dated 2022)
